ChEMBL document CHEMBL5236658, “Trienomycin A-simplified analogs: Synthesis and anti-neuroinflammatory activity” (Bioorg Med Chem Lett, 2023)

How the values were obtained:
BV-2 [1] = assay: Antineuroinflammatory activity in mouse BV-2 cells assessed as inhibition of LPS-induced NO production at 10 uM by Griess assay; format: functional; design: scale not given: the % may be the effect or the level left
[2] = Cytotoxicity against mouse BV-2 cells assessed as cell viability at 20 uM; format: toxicity, cell-based; conditions: read-out: Activity
[3] = Neurotoxicity against rat PC-12 cells at 20 uM incubated for 24 hrs by MTT assay; format: toxicity, cell-based; conditions: pc-12, 24 h
BV-2 [4] = assay: Antineuroinflammatory activity in mouse BV-2 cells assessed as inhibition of LPS-induced NO production by Griess assay; format: functional, cell-based
PC-12 = assay: Neuroprotective activity against H2O2-induced rat PC-12 cells injury assessed as cell viability at 10 uM preincubated for 4 hrs followed by H2O2 stimulation and measured after 24 hrs by MTT assay (reference value: 56%); format: functional; conditions: time 28 hrs, read-out: Activity

| EC50 (BV-2 [4]) | SMILES | Activity (BV-2 [1]) | viability at 20 µM [2] | Activity [3] | viability at 10 µM (PC-12) |
| --- | --- | --- | --- | --- | --- |
| – | C[C@@H](NC(=O)C1CCCCC1)C(=O)OC1CC=CC1 | 17.7% | 91.5% | – | – |
| – | C[C@@H](NC(=O)C1CCCCC1)C(=O)O | 6.72% | 101% | – | – |
| – | C[C@@H](NC(=O)C1CCCCC1)C(=O)OC1CCCCCC1 | 18% | 96.1% | – | – |
| – | C[C@@H](NC(=O)C1CCCCC1)C(=O)OC1C=CCCC1 (some centres undefined) | 14.5% | 85.4% | – | – |
| – | C[C@@H](NC(=O)C1CCCCC1)C(=O)OC1CCC1 | 8% | 106% | – | – |
| – | C[C@@H](NC(=O)C1CCCCC1)C(=O)OC1CCCC1 | 36% | 86.2% | Non-Toxic | – |
| 23.6 µM | C[C@H](NC(=O)C1CCCCC1)C(=O)OCc1ccccc1 | 31.8% | 90% | Non-Toxic | – |
| 8.9 µM | C[C@H](NC(=O)C1CCCCC1)C(=O)OCC1CCCCC1 | 52.9% | 92.7% | Non-Toxic | 76% |
| – | C[C@@H](NC(=O)C1CCCCC1)C(=O)OC1CCCCCCCCCCCCCC1 | 12.5% | 109% | – | – |
| – | C[C@@H](NC(=O)C1CCCCC1)C(=O)OC1CC1 | 9.7% | 97.6% | – | – |
| 17.3 µM | C[C@H](NC(=O)C1CCCCC1)C(=O)OC1CCCCC1 | 41.8% | 91.5% | Non-Toxic | 67% |
| 12.4 µM | C[C@@H](NC(=O)C1CCCCC1)C(=O)OCc1ccccc1 | 47.2% | 93% | Non-Toxic | 80% |
| – | C[C@@H](NC(=O)C1CCCCC1)C(=O)OC1CC/C=C\CCC1 (some centres undefined) | 28.4% | 112% | – | – |
| – | C[C@@H](NC(=O)C1CCCCC1)C(=O)OC1CCCCCCCCCCC1 | 19% | 105% | – | – |
| 13 µM | CO[C@H]1/C=C/C=C/C=C/C[C@H](O)[C@H](C)[C@@H](O)/C(C)=C\CCc2cc(O)cc(c2)NC(=O)C1 | – | – | – | – |
| – | C[C@@H](NC(=O)C1CCCCC1)C(=O)OC1CCCCCCC1 | 8.3% | 84% | – | – |
| 24.1 µM | C[C@@H](NC(=O)C1CCCCC1)C(=O)OCC1CCCCC1 | 31.1% | 98.3% | Non-Toxic | – |
| 22 µM | C[C@@H](NC(=O)C1CCCCC1)C(=O)OC1CCCCC1 | 34.6% | 97.5% | Non-Toxic | – |
| – | O=c1c(O)c(-c2ccc(O)c(O)c2)oc2cc(O)cc(O)c12 [QUERCETIN] | 63.2% | 98.7% | – | – |
| 0.02 µM | CO[C@H]1/C=C/C=C/C=C/C[C@H](OC(=O)[C@@H](C)NC(=O)C2CCCCC2)[C@H](C)[C@@H](O)/C(C)=C\CCc2cc(O)cc(c2)NC(=O)C1 [TRIENOMYCIN A] | – | – | – | – |
